Measurements published in US20260265329A1, “POLYPEPTIDE AND DERIVATIVE THEREOF, COMPOSITION, AND USE THEREOF” (HANGZHOU SCIWIND BIOSCIENCES CO., LTD., priority 2023, published 2026).
Starred links: 1 amine or outer side, 2 acyl side, 3 side chain; linkers in the order of their positions; H or OH if unused. Non-standard residues stand in square brackets, D forms with d. Residues, ends and D or L forms follow the SMILES beside them. *: point of attachment. C20 diacid = O=C(O)CCCCCCCCCCCCCCCCCCC(=O)*; γGlu = O=C(O)[C@H](CCC(=O)[*:2])N[*:1]; Hyp = O=C(O)[C@@H]1C[C@@H](O)CN1

Tests used:
[1] = biological target: T1, human amylin receptors (Homo sapiens, UniProt O60896+P30988); test: Luciferase assay in stably transfected amylin receptor/CRE-luc CHO cell line; assay type: cell-based; details: for Relative activity: EC50 ratio of Cagrilintide to the compound, Cagrilintide 100%; for EC50: amylin receptor/CRE-luc CHO cells, 24 hours incubation, luminescence
T1 construct: host or cells: CHO-K1/Ga15/AMY3 cells, further stably transfected with a CRE-luciferase plasmid
T1 sequence (P30988 25-474): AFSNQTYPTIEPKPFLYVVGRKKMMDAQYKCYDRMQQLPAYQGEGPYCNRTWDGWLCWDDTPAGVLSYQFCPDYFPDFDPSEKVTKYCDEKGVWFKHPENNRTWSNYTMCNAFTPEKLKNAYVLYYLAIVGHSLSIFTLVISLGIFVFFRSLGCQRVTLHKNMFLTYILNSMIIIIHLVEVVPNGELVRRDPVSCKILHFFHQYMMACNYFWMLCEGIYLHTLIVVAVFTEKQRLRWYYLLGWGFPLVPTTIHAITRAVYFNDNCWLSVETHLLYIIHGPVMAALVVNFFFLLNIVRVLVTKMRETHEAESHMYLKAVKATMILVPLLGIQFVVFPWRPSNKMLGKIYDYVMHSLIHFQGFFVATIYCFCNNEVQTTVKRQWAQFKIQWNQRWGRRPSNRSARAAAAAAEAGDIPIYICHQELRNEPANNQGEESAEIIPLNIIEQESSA
T1 sequence (O60896 24-148 partner): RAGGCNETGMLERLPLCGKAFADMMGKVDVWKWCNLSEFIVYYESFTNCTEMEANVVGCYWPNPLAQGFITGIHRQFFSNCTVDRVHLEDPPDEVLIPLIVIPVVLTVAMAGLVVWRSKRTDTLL

[2] = Heat accelerated stability assay, 40° C., detection on 10 d and 20 d; assay type: physicochemical; details: 1 mg/mL, pH about 7.4, 40° C.
Method: The derivatives (1 mg/mL) were mixed with sodium dihydrogen phosphate (1.42 mg/mL) and dissolved in ultrapure water. After adjusting pH to about 7.4 with hydrochloric acid/sodium hydroxide, the solution was filtered into a sterilized vial in a clean bench using a 0.22 μm sterile filter. The vial was then capped and placed into the stability test chamber at 40° C. Detections were made on 10d and 20d, and during the assay changes in the characteristics and properties of the polypeptides were observed and recorded. The sample was then centrifuged for 3 min at 10000 rpm at 4° C., and the supernatant was transferred to a liquid phase sample vial for detecting the concentration and purity of the polypeptides using liquid phase chromatography described as below.
Flow rate: 1.0 mL/min; Autosampler temperature: 25° C.; Column temperature: 25° C.; Detection wavelength: 214 nm; Mobile phase A: 110 mM phosphate buffer (pH 5.8): ACN=90:10; Mobile phase B: ACN: IPA: H2O=85:5:10; and Gradient of elution listed in Table 6: […]

| Relative activity [1] [%] | EC50 [1] [nM] | Reduction in purity, 10 d [2] [%] | Reduction in purity, 20 d [2] [%] | SMILES |
| --- | --- | --- | --- | --- |
| 200 | 0.08 | 11.82 | 19.98 | CC[C@H](C)[C@H](NC(=O)[C@@H]1CCCN1C(=O)[C@H](CCCCN)NC(=O)[C@H](CC(C)C)NC(=O)[C@H](CC(N)=O)NC(=O)[C@H](CCCCN)NC(=O)[C@H](CO)NC(=O)[C@H](CO)NC(=O)[C@H](Cc1c[nH]cn1)NC(=O)[C@H](CCCNC(=N)N)NC(=O)[C@H](CC(C)C)NC(=O)[C@H](Cc1ccccc1)NC(=O)[C@H](CC(=O)O)NC(=O)[C@H](C)NC(=O)[C@H](CC(C)C)NC(=O)[C@H](CCCNC(=N)N)NC(=O)[C@H](CCC(N)=O)NC(=O)[C@@H](NC(=O)[C@H](C)NC(=O)[C@H](C)NC(=O)[C@@H](NC(=O)[C@H](CO)NC(=O)[C@H](CC(C)C)NC(=O)[C@H](CCC(N)=O)NC(=O)[C@H](CO)NC(=O)[C@H](C)NC(=O)CC[C@H](NC(=O)CCCCCCCCCCCCCCCCCCC(=O)O)C(=O)O)[C@@H](C)O)[C@@H](C)O)C(=O)N[C@@H](CC(C)C)C(=O)N1CCC[C@H]1C(=O)N1CCC[C@H]1C(=O)N[C@H](C(=O)N[C@@H](CC(N)=O)C(=O)N[C@H](C(=O)NCC(=O)N[C@@H](CO)C(=O)N[C@@H](CC(N)=O)C(=O)N[C@H](C(=O)N1C[C@H](O)C[C@H]1C(N)=O)[C@@H](C)O)C(C)C)[C@@H](C)O [M53] ({C20 diacid-γGlu}-ASQLSTAATQRLADFLRHSSKNLKPILPPTNVGSNT[Hyp]-NH2) |
| 180 | 0.05 | 8.61 | – | CC[C@H](C)[C@H](NC(=O)[C@@H]1CCCN1C(=O)[C@H](CCCCN)NC(=O)[C@H](CC(C)C)NC(=O)[C@H](CC(N)=O)NC(=O)[C@H](CO)NC(=O)[C@H](CO)NC(=O)[C@H](CO)NC(=O)[C@H](Cc1c[nH]cn1)NC(=O)[C@H](CCCNC(=N)N)NC(=O)[C@H](CC(C)C)NC(=O)[C@H](Cc1ccccc1)NC(=O)[C@H](CC(=O)O)NC(=O)[C@H](C)NC(=O)[C@H](CC(C)C)NC(=O)[C@H](CCCNC(=N)N)NC(=O)[C@H](CCC(N)=O)NC(=O)[C@@H](NC(=O)[C@H](C)NC(=O)[C@H](C)NC(=O)[C@@H](NC(=O)[C@H](CO)NC(=O)[C@H](CC(C)C)NC(=O)[C@H](CCC(N)=O)NC(=O)[C@H](CO)NC(=O)[C@H](C)NC(=O)CC[C@H](NC(=O)CCCCCCCCCCCCCCCCCCC(=O)O)C(=O)O)[C@@H](C)O)[C@@H](C)O)C(=O)N[C@@H](CC(C)C)C(=O)N1CCC[C@H]1C(=O)N1CCC[C@H]1C(=O)N[C@H](C(=O)N[C@@H](CC(N)=O)C(=O)N[C@H](C(=O)NCC(=O)N[C@@H](CO)C(=O)N[C@@H](CC(N)=O)C(=O)N[C@H](C(=O)N1C[C@H](O)C[C@H]1C(N)=O)[C@@H](C)O)C(C)C)[C@@H](C)O [M48] ({C20 diacid-γGlu}-ASQLSTAATQRLADFLRHSSSNLKPILPPTNVGSNT[Hyp]-NH2) |
| 163 | 0.08 | 8.5 | – | CC[C@H](C)[C@H](NC(=O)[C@@H]1CCCN1C(=O)[C@H](CCCCN)NC(=O)[C@H](CC(C)C)NC(=O)[C@H](CC(N)=O)NC(=O)[C@@H](NC(=O)[C@H](CO)NC(=O)[C@H](CO)NC(=O)[C@H](Cc1c[nH]cn1)NC(=O)[C@H](CCCNC(=N)N)NC(=O)[C@H](CC(C)C)NC(=O)[C@H](Cc1ccccc1)NC(=O)[C@H](CC(=O)O)NC(=O)[C@H](C)NC(=O)[C@H](CC(C)C)NC(=O)[C@H](CCCNC(=N)N)NC(=O)[C@H](CCC(N)=O)NC(=O)[C@@H](NC(=O)[C@H](C)NC(=O)[C@H](C)NC(=O)[C@@H](NC(=O)[C@H](CO)NC(=O)[C@H](CC(C)C)NC(=O)[C@H](CCC(N)=O)NC(=O)[C@H](CO)NC(=O)[C@H](C)NC(=O)CC[C@H](NC(=O)CCCCCCCCCCCCCCCCCCC(=O)O)C(=O)O)[C@@H](C)O)[C@@H](C)O)[C@@H](C)O)C(=O)N[C@@H](CC(C)C)C(=O)N1CCC[C@H]1C(=O)N1CCC[C@H]1C(=O)N[C@H](C(=O)N[C@@H](CC(N)=O)C(=O)N[C@H](C(=O)NCC(=O)N[C@@H](CO)C(=O)N[C@@H](CC(N)=O)C(=O)N[C@H](C(=O)N1C[C@H](O)C[C@H]1C(N)=O)[C@@H](C)O)C(C)C)[C@@H](C)O [M49] ({C20 diacid-γGlu}-ASQLSTAATQRLADFLRHSSTNLKPILPPTNVGSNT[Hyp]-NH2) |
| 150 | 0.06 | 8.69 | – | CC[C@H](C)[C@H](NC(=O)[C@@H]1CCCN1C(=O)[C@H](CCCCN)NC(=O)[C@H](CC(C)C)NC(=O)[C@H](CC(N)=O)NC(=O)[C@H](CCC(N)=O)NC(=O)[C@H](CO)NC(=O)[C@H](CO)NC(=O)[C@H](Cc1c[nH]cn1)NC(=O)[C@H](CCCNC(=N)N)NC(=O)[C@H](CC(C)C)NC(=O)[C@H](Cc1ccccc1)NC(=O)[C@H](CC(=O)O)NC(=O)[C@H](C)NC(=O)[C@H](CC(C)C)NC(=O)[C@H](CCCNC(=N)N)NC(=O)[C@H](CCC(N)=O)NC(=O)[C@@H](NC(=O)[C@H](C)NC(=O)[C@H](C)NC(=O)[C@@H](NC(=O)[C@H](CO)NC(=O)[C@H](CC(C)C)NC(=O)[C@H](CCC(N)=O)NC(=O)[C@H](CO)NC(=O)[C@H](C)NC(=O)CC[C@H](NC(=O)CCCCCCCCCCCCCCCCCCC(=O)O)C(=O)O)[C@@H](C)O)[C@@H](C)O)C(=O)N[C@@H](CC(C)C)C(=O)N1CCC[C@H]1C(=O)N1CCC[C@H]1C(=O)N[C@H](C(=O)N[C@@H](CC(N)=O)C(=O)N[C@H](C(=O)NCC(=O)N[C@@H](CO)C(=O)N[C@@H](CC(N)=O)C(=O)N[C@H](C(=O)N1C[C@H](O)C[C@H]1C(N)=O)[C@@H](C)O)C(C)C)[C@@H](C)O [M46] ({C20 diacid-γGlu}-ASQLSTAATQRLADFLRHSSQNLKPILPPTNVGSNT[Hyp]-NH2) |
| 267 | 0.06 | 11.67 | 20.56 | CC[C@H](C)[C@H](NC(=O)[C@@H]1CCCN1C(=O)[C@H](CCCCN)NC(=O)[C@H](CC(C)C)NC(=O)[C@H](CC(N)=O)NC(=O)[C@H](CCCNC(=N)N)NC(=O)[C@H](CO)NC(=O)[C@H](CO)NC(=O)[C@H](Cc1c[nH]cn1)NC(=O)[C@H](CCCNC(=N)N)NC(=O)[C@H](CC(C)C)NC(=O)[C@H](Cc1ccccc1)NC(=O)[C@H](CC(=O)O)NC(=O)[C@H](C)NC(=O)[C@H](CC(C)C)NC(=O)[C@H](CCCNC(=N)N)NC(=O)[C@H](CCC(N)=O)NC(=O)[C@@H](NC(=O)[C@H](C)NC(=O)[C@H](C)NC(=O)[C@@H](NC(=O)[C@H](CO)NC(=O)[C@H](CC(C)C)NC(=O)[C@H](CCC(N)=O)NC(=O)[C@H](CO)NC(=O)[C@H](C)NC(=O)CC[C@H](NC(=O)CCCCCCCCCCCCCCCCCCC(=O)O)C(=O)O)[C@@H](C)O)[C@@H](C)O)C(=O)N[C@@H](CC(C)C)C(=O)N1CCC[C@H]1C(=O)N1CCC[C@H]1C(=O)N[C@H](C(=O)N[C@@H](CC(N)=O)C(=O)N[C@H](C(=O)NCC(=O)N[C@@H](CO)C(=O)N[C@@H](CC(N)=O)C(=O)N[C@H](C(=O)N1C[C@H](O)C[C@H]1C(N)=O)[C@@H](C)O)C(C)C)[C@@H](C)O [M54] ({C20 diacid-γGlu}-ASQLSTAATQRLADFLRHSSRNLKPILPPTNVGSNT[Hyp]-NH2) |
| 163 | 0.08 | 23.4 | 35.42 | CC[C@H](C)[C@H](NC(=O)[C@@H]1CCCN1C(=O)[C@H](CCCCN)NC(=O)[C@H](CC(C)C)NC(=O)[C@H](CC(N)=O)NC(=O)CNC(=O)[C@H](CO)NC(=O)[C@H](CO)NC(=O)[C@H](Cc1c[nH]cn1)NC(=O)[C@H](CCCNC(=N)N)NC(=O)[C@H](CC(C)C)NC(=O)[C@H](Cc1ccccc1)NC(=O)[C@H](CC(=O)O)NC(=O)[C@H](C)NC(=O)[C@H](CC(C)C)NC(=O)[C@H](CCCNC(=N)N)NC(=O)[C@H](CCC(N)=O)NC(=O)[C@@H](NC(=O)[C@H](C)NC(=O)[C@H](C)NC(=O)[C@@H](NC(=O)[C@H](CO)NC(=O)[C@H](CC(C)C)NC(=O)[C@H](CCC(N)=O)NC(=O)[C@H](CO)NC(=O)[C@H](C)NC(=O)CC[C@H](NC(=O)CCCCCCCCCCCCCCCCCCC(=O)O)C(=O)O)[C@@H](C)O)[C@@H](C)O)C(=O)N[C@@H](CC(C)C)C(=O)N1CCC[C@H]1C(=O)N1CCC[C@H]1C(=O)N[C@H](C(=O)N[C@@H](CC(N)=O)C(=O)N[C@H](C(=O)NCC(=O)N[C@@H](CO)C(=O)N[C@@H](CC(N)=O)C(=O)N[C@H](C(=O)N1C[C@H](O)C[C@H]1C(N)=O)[C@@H](C)O)C(C)C)[C@@H](C)O [M51] ({C20 diacid-γGlu}-ASQLSTAATQRLADFLRHSSGNLKPILPPTNVGSNT[Hyp]-NH2) |
